In patent publication US8247211B2, “Glycopeptide antibiotics” (American Cyanamid Company, priority 2001, dated 2012):

Key:
Test in all cases: In vitro antibacterial evaluation: minimum inhibitory concentration (MIC), broth dilution method
Type in all cases: cell-based
Settings in all cases: 18 hours at 35° C.
[1] = tested on: Enterococcus sp.
In short: (§1)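 NCCLS M7-A2 broth dilution with Mueller-Hinton II, testing 64-0.06 μg/mL antibiotic against 5×10^5 CFU/mL inocula. Test strains include recent methicillin-, penicillin- or vancomycin-resistant clinical isolates. MIC is the lowest concentration preventing growth.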

[2] = tested on: Escherichia coli
In short: as §1

[3] = tested on: Staphylococcus sp.
In short: as §1

[4] = tested on: Streptococcus sp.
In short: as §1

β-O-[(Heptylamino)carbonyl]-cyclo[glycyl-β-methylphenylalanyl-O-(4-O-hexopyranosylhexopyranosyl)tyrosyl-3-(2-iminoimidazolidin-4-yl)seryl-3-(3-hexopyranosyl-2-iminoimidazolidin-4-yl)serylseryl] [Example 253a]
>64 µg/mL: MIC Escherichia coli (ATCC 25922) ([2]; Escherichia coli (ATCC 25922)) | MIC Escherichia coli (GC 4559) ([2]; Escherichia coli (GC 4559))
16 µg/mL: MIC Enterococcus avium (GC 4558) ([1]; Enterococcus avium (GC 4558)) | MIC Enterococcus faecalis (ATCC 29212) ([1]; Enterococcus faecalis (ATCC 29212)) | MIC Enterococcus faecalis (GC 2242) ([1]; Enterococcus faecalis (GC 2242)) | MIC Enterococcus faecalis (GC 2691) ([1]; Enterococcus faecalis (GC 2691)) | MIC Enterococcus faecalis (GC 4553) ([1]; Enterococcus faecalis (GC 4553)) | MIC Enterococcus faecalis (GC 6189) ([1]; Enterococcus faecalis (GC 6189)) | MIC Enterococcus faecium (GC 2243) ([1]; Enterococcus faecium (GC 2243)) | MIC Enterococcus faecium (GC 4556) ([1]; Enterococcus faecium (GC 4556)) | MIC Enterococcus faecalis (ATCC 29212) ([1]; broth dilution, strain ATCC 29212) | MIC Enterococcus faecalis (GC 2242) ([1]; broth dilution, strain GC 2242) | MIC Enterococcus faecium (GC 2243) ([1]; broth dilution, strain GC 2243) | MIC Enterococcus faecalis (GC 2691) ([1]; broth dilution, strain GC 2691) | MIC Enterococcus faecalis (GC 4553) ([1]; broth dilution, strain GC 4553) | MIC Enterococcus faecium (GC 4556) ([1]; broth dilution, strain GC 4556) | MIC Enterococcus avium (GC 4558) ([1]; broth dilution, strain GC 4558) | MIC Enterococcus faecalis (GC 6189) ([1]; broth dilution, strain GC 6189)
32 µg/mL: MIC Enterococcus faecalis (GC 3059) ([1]; Enterococcus faecalis (GC 3059)) | MIC Enterococcus faecalis (GC 4552) ([1]; Enterococcus faecalis (GC 4552)) | MIC Enterococcus faecalis (GC 4554) ([1]; Enterococcus faecalis (GC 4554)) | MIC Enterococcus faecalis (GC 3059) ([1]; broth dilution, strain GC 3059) | MIC Enterococcus faecalis (GC 4552) ([1]; broth dilution, strain GC 4552) | MIC Enterococcus faecalis (GC 4554) ([1]; broth dilution, strain GC 4554)
4 µg/mL: MIC Enterococcus faecium (GC 4557) ([1]; Enterococcus faecium (GC 4557)) | MIC Enterococcus faecium (GC 4557) ([1]; broth dilution, strain GC 4557) | MIC Coagulase Negative Staphylococcus (GC 4547) ([3]; Coagulase Negative Staphylococcus (GC 4547)) | MIC Coagulase Negative Staphylococcus (GC 4548) ([3]; Coagulase Negative Staphylococcus (GC 4548)) | MIC Staphylococcus aureus (ATCC 29213) ([3]; Staphylococcus aureus (ATCC 29213)) | MIC Staphylococcus aureus (GC 1131) ([3]; Staphylococcus aureus (GC 1131)) | MIC Staphylococcus aureus (GC 3053) ([3]; Staphylococcus aureus (GC 3053)) | MIC Staphylococcus aureus (GC 4541) ([3]; Staphylococcus aureus (GC 4541)) | MIC Staphylococcus aureus (GC 4542) ([3]; Staphylococcus aureus (GC 4542)) | MIC Staphylococcus aureus (GC 4544) ([3]; Staphylococcus aureus (GC 4544)) | MIC Staphylococcus haemolyticus (GC 4546) ([3]; Staphylococcus haemolyticus (GC 4546)) | MIC Staphylococcus aureus (ATCC 29213) ([3]; broth dilution, strain ATCC 29213) | MIC Staphylococcus aureus (GC 1131) ([3]; broth dilution, strain GC 1131) | MIC Staphylococcus aureus (GC 3053) ([3]; broth dilution, strain GC 3053) | MIC Staphylococcus aureus (GC 4541) ([3]; broth dilution, strain GC 4541) | MIC Staphylococcus aureus (GC 4542) ([3]; broth dilution, strain GC 4542) | MIC Staphylococcus aureus (GC 4544) ([3]; broth dilution, strain GC 4544) | MIC Staphylococcus haemolyticus (GC 4546) ([3]; broth dilution, strain GC 4546) | MIC Coagulase Negative Staphylococcus (GC 4547) ([3]; broth dilution, strain GC 4547) | MIC Coagulase Negative Staphylococcus (GC 4548) ([3]; broth dilution, strain GC 4548)
8 µg/mL: MIC Coagulase Negative Staphylococcus (GC 4551) ([3]; Coagulase Negative Staphylococcus (GC 4551)) | MIC Coagulase Negative Staphylococcus (GC 4551) ([3]; broth dilution, strain GC 4551)
0.5 µg/mL: MIC Streptococcus pneumoniae (ATCC 6301) ([4]; Streptococcus pneumoniae (ATCC 6301)) | MIC Streptococcus pneumoniae (GC 4565) ([4]; Streptococcus pneumoniae (GC 4565)) | MIC Streptococcus pneumoniae (ATCC 6301) ([4]; broth dilution, strain ATCC 6301) | MIC Streptococcus pneumoniae (GC 4565) ([4]; broth dilution, strain GC 4565)
1 µg/mL: MIC Coagulase Negative Staphylococcus (GC 4549) ([3]; Coagulase Negative Staphylococcus (GC 4549)) | MIC Coagulase Negative Staphylococcus (GC 6257) ([3]; Coagulase Negative Staphylococcus (GC 6257)) | MIC Coagulase Negative Staphylococcus (GC 4549) ([3]; broth dilution, strain GC 4549) | MIC Coagulase Negative Staphylococcus (GC 6257) ([3]; broth dilution, strain GC 6257) | MIC Streptococcus agalactiae (GC 4564) ([4]; Streptococcus agalactiae (GC 4564)) | MIC Streptococcus pyogenes (GC 4563) ([4]; Streptococcus pyogenes (GC 4563)) | MIC Streptococcus pyogenes (GC 4563) ([4]; broth dilution, strain GC 4563) | MIC Streptococcus agalactiae (GC 4564) ([4]; broth dilution, strain GC 4564)
2 µg/mL: MIC Escherichia coli (GC 4560) ([2]; Escherichia coli (GC 4560)) | MIC Staphylococcus aureus (GC 3051) ([3]; Staphylococcus aureus (GC 3051)) | MIC Staphylococcus aureus (GC 4545) ([3]; Staphylococcus aureus (GC 4545)) | MIC Staphylococcus aureus-SMITH (GC 4543) ([3]; Staphylococcus aureus-SMITH (GC 4543)) | MIC Staphylococcus aureus (GC 3051) ([3]; broth dilution, strain GC 3051) | MIC Staphylococcus aureus-SMITH (GC 4543) ([3]; broth dilution, strain GC 4543) | MIC Staphylococcus aureus (GC 4545) ([3]; broth dilution, strain GC 4545)
0.25 µg/mL: MIC Streptococcus pneumoniae (GC 1894) ([4]; Streptococcus pneumoniae (GC 1894)) | MIC Streptococcus pneumoniae (GC 1894) ([4]; broth dilution, strain GC 1894)
